According to PMC5064002, “Sintokamide A Is a Novel Antagonist of Androgen Receptor That Uniquely Binds Activation Function-1 in Its Amino-terminal Domain” (The Journal of Biological Chemistry, 2016):

Experiments:
Format in all cases: cell-based
LNCaP95 cells = assay: Cell proliferation (BrdU incorporation), LNCaP95; settings: 48 h
Procedure: (§1) Cells were pulse-labeled with 10 μM BrdU for 2 h. Cells were fixed, and BrdU-labeled cells were identified with anti-BrdU-peroxidase (Roche Applied Science). BrdU incorporation was measured at 570 nm using a VersaMax ELISA microplate reader (Molecular Devices). At least three independent experiments with six technical replicates were analyzed, and average values are indicated.

LNCaP cells = assay: Cell proliferation (BrdU incorporation), LNCaP; settings: 0.1 nM R1881, 72 h
Procedure: as §1

[1] = biological target: T1, AR interaction with STAT3 (Homo sapiens, UniProt P10275, T878A); assay: Co-immunoprecipitation of AR with STAT3 in LNCaP cells; settings: EPI-002 35 μM or SINT1 20 μM, 50 ng/ml IL-6 6 h
T1 construct: endogenous in cells; host or cells: LNCaP
T1 sequence (P10275 1-920 T878A): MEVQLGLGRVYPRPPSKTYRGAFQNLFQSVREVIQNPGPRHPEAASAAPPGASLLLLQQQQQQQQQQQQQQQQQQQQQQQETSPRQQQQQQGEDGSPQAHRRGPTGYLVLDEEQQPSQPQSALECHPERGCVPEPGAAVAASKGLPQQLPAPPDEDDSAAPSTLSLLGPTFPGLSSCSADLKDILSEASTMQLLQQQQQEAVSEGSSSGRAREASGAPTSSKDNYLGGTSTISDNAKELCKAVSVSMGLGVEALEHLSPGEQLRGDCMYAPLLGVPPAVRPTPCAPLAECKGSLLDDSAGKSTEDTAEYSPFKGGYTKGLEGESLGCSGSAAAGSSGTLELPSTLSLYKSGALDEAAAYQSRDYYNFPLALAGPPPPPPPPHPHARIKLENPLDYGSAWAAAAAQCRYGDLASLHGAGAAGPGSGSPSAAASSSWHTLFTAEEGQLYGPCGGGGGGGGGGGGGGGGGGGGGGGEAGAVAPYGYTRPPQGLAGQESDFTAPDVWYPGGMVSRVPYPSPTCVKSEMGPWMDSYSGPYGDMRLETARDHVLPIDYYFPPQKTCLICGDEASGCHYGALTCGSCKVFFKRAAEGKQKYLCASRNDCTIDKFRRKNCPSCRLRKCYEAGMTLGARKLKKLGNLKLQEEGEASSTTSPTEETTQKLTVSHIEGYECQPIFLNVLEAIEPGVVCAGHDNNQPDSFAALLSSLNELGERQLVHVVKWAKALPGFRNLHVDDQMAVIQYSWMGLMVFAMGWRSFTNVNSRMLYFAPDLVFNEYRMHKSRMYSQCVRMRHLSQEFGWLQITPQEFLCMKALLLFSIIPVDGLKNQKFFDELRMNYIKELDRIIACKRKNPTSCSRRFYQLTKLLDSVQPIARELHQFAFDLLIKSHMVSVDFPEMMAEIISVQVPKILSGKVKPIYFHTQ
Procedure: LNCaP cells were preincubated with EPI-002 (35 μM), SINT1 (20 μM), or DMSO (vehicle control) for 1 h before treatment for 6 h with 50 ng/ml IL-6. Whole cell lysates were prepared from harvested cells in modified radioimmune precipitation assay buffer. Cell lysates were precleared with 2 μg of normal mouse IgG and 20 μl of Protein A/G PLUS-agarose beads (Santa Cruz Biotechnology) to remove nonspecific bead binding. Total STAT3 was immunoprecipitated with 10 μg of antibody against STAT3 (124H6) or 10 μg of normal mouse IgG as a negative control followed by probing the immunoblot with anti-AR antibody (AR-N20; 1:1000) and anti-STAT3 antibody (124H6; 1:1000) and normalizing to levels of β-actin (1:10,000) as loading controls. The input lanes were loaded with 5 μg of the starting cell lysate. The relative density of AR for each immunoprecipitated sample was quantified by ImageJ software and normalized to levels of STAT3 pulled down.

AR-V567es = biological target: T2, AR-V567es (Homo sapiens, UniProt P10275); assay: Transcriptional activity of AR splice variant, PB-luciferase in COS-1 cells; settings: for AR-V567es transcriptional activities (PB-luciferase): COS-1, 20 μM SINT1, 25 μM EPI-002
T2 construct: expressed in transfected cells; host or cells: COS-1
T2 sequence (P10275 with tags, fused parts or gaps limits assumed): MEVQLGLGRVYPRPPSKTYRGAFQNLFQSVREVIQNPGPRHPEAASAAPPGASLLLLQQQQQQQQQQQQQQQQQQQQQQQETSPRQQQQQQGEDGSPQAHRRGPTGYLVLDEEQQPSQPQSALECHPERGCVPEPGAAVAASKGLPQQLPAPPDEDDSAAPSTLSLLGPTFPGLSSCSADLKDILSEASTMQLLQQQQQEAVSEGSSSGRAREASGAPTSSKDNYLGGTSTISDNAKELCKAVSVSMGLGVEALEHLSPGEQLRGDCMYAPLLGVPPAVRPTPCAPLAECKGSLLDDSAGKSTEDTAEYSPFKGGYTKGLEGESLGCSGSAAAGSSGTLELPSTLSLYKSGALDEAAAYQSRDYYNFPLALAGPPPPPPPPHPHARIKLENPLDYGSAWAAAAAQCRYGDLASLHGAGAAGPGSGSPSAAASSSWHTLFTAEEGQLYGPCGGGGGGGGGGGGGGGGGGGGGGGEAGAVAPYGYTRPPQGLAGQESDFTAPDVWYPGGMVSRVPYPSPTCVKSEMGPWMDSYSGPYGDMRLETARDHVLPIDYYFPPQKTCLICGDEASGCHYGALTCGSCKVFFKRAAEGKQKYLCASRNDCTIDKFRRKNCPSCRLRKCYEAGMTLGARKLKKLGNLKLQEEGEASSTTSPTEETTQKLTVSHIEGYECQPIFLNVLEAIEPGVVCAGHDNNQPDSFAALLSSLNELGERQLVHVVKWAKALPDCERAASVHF
Procedure: […]. Levels of expression of AR variant were determined by Western blotting using 10 μg of total protein extracted from same plates (3 wells per condition) using AR-N20 antibody (1:1000) and goat anti-rabbit HRP-conjugated secondary antibody (Santa Cruz Biotechnology; 1:10,000).

Row | Structure (SMILES) | proliferation of LNCaP95 cells (LNCaP95 cells) | androgen-induced proliferation of LNCaP cells (LNCaP cells) | interaction between AR and STAT3 [1] | AR-V567es transcriptional activities (PB-luciferase) (AR-V567es) | levels of AR-V567es protein (AR-V567es; COS-1, Western blot)
1 | CC(C)(c1ccc(OC[C@H](O)CO)cc1)c1ccc(OC[C@H](O)CCl)cc1 [EPI-002, reference compound] | inhibited | inhibited | inhibited interaction | significantly inhibited | –
2 | CCC(=O)NC(CC(C)C(Cl)(Cl)Cl)C(=O)N1C(=O)C=C(OC)C1CC(C)C(Cl)Cl (stereo not drawn) [SINT1, Sintokamide A] | inhibited | inhibited | did not | significantly inhibited | not decreased
